Tests used:
hepatocytes = assay: Cell damage of hepatocytes by hydrogenperoxide (FIG. 5); assay type: cell-based; conditions: 1 mM/l in N4 solution + 20 mM/l H2O2
Protocol: 1: N4+20 mM/l H2O2 • graph no. 2: N4+20 mM/l H2O2+1 mM/l 4-chloro-N-methyl-benzohydroxamic acid • graph no. 3: N4+20 mM/l H2O2+1 mM/l 2-hydroxy-3-methyl-isocarbosteryl • graph no. 4: N4+20 mM/l H2O2+1 mM/l 3,4,5-trimethoxy-N-methyl-benzohydroxamic acid • graph no. 5: N4+20 mM/l H2O2+1 mM/l 3,4-dimethoxy-N-methyl-hydroxamic acid, N4 meaning the solution according to example II given hereinafter, but without Trolox and without hydroxamic acid derivative.

[1] = tested on: iron-dependent hypothermic injury, cold-induced apoptosis; assay: Inhibition of iron-dependent hypothermic injury / cold-induced apoptosis by iron-chelating agents; assay type: cell-based
Excerpt: Iron-chelating agents may serve for the inhibition of the iron-dependent hypothermic injury, or of the cold-induced apoptosis.

rat hepatocytes [2] = assay: Hypothermic injury of cultivated rat hepatocytes in UW solution, LDH release (FIG. 2); assay type: cell-based; conditions: 1 mM; 24 hrs at 4° C. in UW solution, aerobic; reheated 3 hrs at 37° C. in cell culture medium
Protocol: Cultivated rat hepatocytes were incubated for 24 hrs at 4° C. in a University of Wisconsin solution (UW) under aerobic conditions in the presence of, and in the absence of 1 mM of 3,4-dimethoxy-N-methyl-benzohydroxamic acid, and subsequently reheated for 3 hrs in a cell culture medium (37° C.). The secretion of cytosolic lactate […] (LDH) served as the parameter of the cell damage.

[3] = Neutralization curve / buffer capacity (FIG. 3); assay type: physicochemical; conditions: for usable buffer capacity in the range of the physiological pH value: based on the ratio of spent base to substrate
Excerpt: The usable buffer capacity in the range of the physiological pH value; with N-acetylhistidine 60%, and with histidine 30% based on the ratio of spent base to substrate.

rat hepatocytes [4] = assay: Toxicity of histidine under warm conditions in cultivated rat hepatocytes (FIG. 4); assay type: cell-based; conditions: 198 mM; 5 hrs at 37° C., aerobic, Krebs-Henseleit buffer, pH 7.2
Protocol: Cultivated rat hepatocytes were incubated for 5 hrs at 37° C. under aerobic conditions in the presence of, and in the absence of 198 mM of L-histidine, or 198 mM of N-acetylhistidine. The base solution was Krebs-Henseleit buffer (KH), a physiological saline solution often used in cell cultures; the NaCl concentration of the histidine (derivative) containing solution was decreased by 99 mM and the histidine (derivative) solution was adjusted by the addition of HCl or NAOH to pH 7.2.

[5] = tested on: rat liver endothelial cells; assay: Hypothermic injury of cultivated rat liver endothelial cells, LDH release (FIG. 1); assay type: cell-based; conditions: 1 mM; 72 hrs at 4° C. in UW solution, aerobic; rewarmed 3 hrs at 37° C. in cell culture medium
Protocol: Cultivated rat liver endothelial cells were incubated for 72 hrs at 4° C. in University of Wisconsin solution (UW) under aerobic conditions in the presence of, and in the absence of 1 mM of salicyl-N-methylhydroxamic acid, and subsequently rewarmed for 3 hrs in a cell culture medium (37° C.). The release of cytosolic lactate dehydrogenase (LDH) served as the parameter of the cell damage.

SMILES | protection from cell damage by hydrogenperoxide (hepatocytes) | effectiveness in avoiding iron-dependent hypothermic injury [1] | also measured
Cc1cc2ccccc2c(=O)n1O [2-hydroxy-3-methyl-isocarbosteryl, 2-hydroxy-3-methyl-isocarbostyril] | protection | – | –
COc1cc(C(=O)N(C)O)cc(OC)c1OC [3,4,5-trimethoxy-N-methyl-benzohydroxamic acid] | protection | – | –
O=c1c2ccccc2nnn1O [3,4-dihydro-3-hydroxy-4oxo-1,2,3-benzotriazine] | – | ineffectiveness | –
COc1ccc(C(=O)N(C)O)cc1OC [3,4-dimethoxy-N-methyl-benzohydroxamic acid] | protection | – | inhibition of hypothermic injury (cytosolic LDH) (rat hepatocytes [2]): inhibition of hypothermic injury
CN(O)C(=O)c1ccc(Cl)cc1 [4-chloro-N-methyl-benzohydroxamic acid] | protection | – | –
O=C(O)CN(CCN(CC(=O)O)CC(=O)O)CC(=O)O [EDTA] | – | ineffective | –
CC(=O)N[C@@H](Cc1c[nH]cn1)C(=O)O [N-acetylhistidine] | – | – | usable buffer capacity in the range of the physiological pH value [3]: 60%; buffer capacity improved by factor compared to histidine/histidine HCl ([3]; factor versus histidine/histidine HCl): 2
O=C1CCC(=O)N1O [N-hydroxysuccinimide] | – | ineffectiveness | –
N[C@@H](Cc1c[nH]cn1)C(=O)O [histidine, L-histidine] | – | ineffective | usable buffer capacity in the range of the physiological pH value [3]: 30%; toxicity under warm conditions (rat hepatocytes [4]): toxicity
CN(O)C(=O)c1ccccc1O [salicyl-N-methylhydroxamic acid] | – | – | inhibition of hypothermic injury (release of cytosolic LDH) [5]: inhibition of hypothermic injury
